Patent US9963464B2, “Macrocyclic compounds” (Bayer Pharma Aktiengesellschaft, priority 2014, dated 2018)
Read-outs that look alike come from different tables or passages of the source.

Legend:
DU145 cells = experiment: Proliferation assay DU145; assay type: cell-based, human; details: 4 days, crystal violet, read-out: Inhibition of DU145 cell proliferation IC50
Experimental: (§1) Cultivated tumour cells (HeLa, human cervical tumour cells, ATCC CCL-2; NCI-H460, human non-small cell lung carcinoma cells, ATCC HTB-177; A2780, human ovarian carcinoma cells, ECACC #93112519; DU 145, hormone-independent human prostate carcinoma cells, ATCC HTB-81; HeLa-MaTu-ADR, multidrug-resistant human cervical carcinoma cells, EPO-GmbH Berlin; Caco-2, human colorectal carcinoma cells, ATCC HTB-37; B16F10, mouse melanoma cells, ATCC CRL-6475) were plated at a density of 5,000 cells/well (DU145, HeLa-MaTu-ADR), 3,000 cells/well (NCI-H460, HeLa), 2,500 cells/well (A2780), 1,500 cells/well (Caco-2), or 1,000 cells/well (B16F10) in a 96-well multititer plate in 200 μL of their respective growth medium supplemented 10% fetal calf serum. After 24 hours, the cells of one plate (zero-point plate) were stained with crystal violet (see below), while the medium of the other plates was replaced by fresh culture medium (200 μl), to which the test substances were added in various concentrations (0 μM, as well as in the range of 0.001-10 μM). The cells were incubated for 4 days in the presence of test substances. Cell proliferation was determined by staining the cells with crystal violet: the cells were fixed by adding 20 μl/measuring point of an 11% glutaric aldehyde solution for 15 minutes at room temperature. After three washing cycles of the fixed cells with water, the plates were dried at room temperature. The cells were stained by adding 100 μl/measuring point of a 0.1% crystal violet solution (pH 3.0). After three washing cycles of the stained cells with water, the plates were dried at room temperature. The dye was dissolved by adding 100 μl/measuring point of a 10% acetic acid solution. The extinction was determined by photometry at a wavelength of 595 nm. The change of cell number, in percent, was calculated by normalization of the measured values to the extinction values of the zero-point plate (=0%) and the extinction of the untreated (0 μm) cells (=100%). The IC50 values (inhibitory concentration at 50% of maximal effect) were determined by means of a 4 parameter fit. Non-adherent MOLM-13 human acute myeloid leukemia cells (DSMZ ACC 554) were seeded at a density of 5,000 cells/well in a 96-well multititer plate in 100 μL of growth medium supplemented 10% fetal calf serum. After 24 hours, cell viability of one plate (zero-point plate) was determined with the Cell Titre-Glo Luminescent Cell Viability Assay (Promega), while 50 μL of test compound containing medium was added to the wells of the other plates (final concentrations in the range of 0.001-1 μM and DMSO controls). Cell viability was assessed after 72-hour exposure with the Cell Titre-Glo Luminescent Cell Viability Assay (Promega). IC50 values (inhibitory concentration at 50% of maximal effect) were determined by means of a 4 parameter fit on measurement data which were normalized to vehicle (DMSO) treated cells (=100%) and measurement readings taken immediately before compound exposure (=0%).

CDK2/CycE = target: T1, CDK2/CycE (Homo sapiens, UniProt P24941); experiment: CDK2/CycE kinase assay (TR-FRET, Method 2a); assay type: biochemical; details: 10 μM ATP
T1 construct: GST; purchased ProQinase GmbH (Freiburg, Germany); host or cells: insect cells (Sf9)
Excerpt: 2a. CDK2/CycE Kinase Assay:
CDK2/CycE-inhibitory activity of compounds of the present invention was quantified employing the CDK2/CycE TR-FRET assay as described in the following paragraphs:
Recombinant fusion proteins of GST and human CDK2 and of GST and human CycE, expressed in insect cells (Sf9) and purified by Glutathion-Sepharose affinity chromatography, were purchased from ProQinase GmbH (Freiburg, Germany). As substrate for the kinase reaction biotinylated peptide biotin-Ttds-YISPLKSPYKISEG (C-terminus in amid form) was used which can be purchased e.g. from the company JERINI Peptide Technologies (Berlin, Germany).
For the assay 50 nl of a 100 fold concentrated solution of the test compound in DMSO was pipetted into a black low volume 384 well microtiter plate (Greiner Bio-One, Frickenhausen, Germany), 2 μl of a solution of CDK2/CycE in aqueous assay buffer [50 mM Tris/HCl pH 8.0, 10 mM MgCl2, 1.0 mM dithiothreitol, 0.1 mM sodium ortho-vanadate, 0.01% (v/v) Nonidet-P40 (Sigma)] were added and the mixture was incubated for 15 min at 22° C. to allow pre-binding of the test compounds to the enzyme before the start of the kinase reaction. […] The concentration of CDK2/CycE was adjusted depending of the activity of the enzyme lot and was chosen appropriate to have the assay in the linear range, typical concentrations were in the range of 130 ng/mL. The reaction was stopped by the addition of 5 μl of a solution of TR-FRET detection reagents (0.2 μM streptavidine-XL665 [Cisbio Bioassays, Codolet, France] and 1 nM anti-RB(pSer807/pSer811)-antibody from BD Pharmingen [#558389] and 1.2 nM LANCE EU-W1024 labeled anti-mouse IgG antibody [Perkin-Elmer, product no. AD0077]) in an aqueous EDTA-solution (100 mM EDTA, 0.2% (w/v) bovine serum albumin in 100 mM HEPES pH 7.5).
The resulting mixture was incubated 1 h at 22° C. to allow the formation of complex between the phosphorylated biotinylated peptide and the detection reagents. Subsequently the amount of phosphorylated substrate was evaluated by measurement of the resonance energy transfer from the Eu-chelate to the streptavidine-XL. Therefore, the fluorescence emissions at 620 nm and 665 nm after excitation at 350 nm was measured in a TR-FRET reader, e.g. a Rubystar (BMG Labtechnologies, Offenburg, Germany) or a Viewlux (Perkin-Elmer). The ratio of the emissions at 665 nm and at […] was taken as the measure for the amount of phosphorylated substrate. The data were normalised (enzyme reaction without inhibitor=0% inhibition, all other assay components but no enzyme=100% inhibition).

HeLa-MaTu-ADR cells = experiment: Proliferation assay HeLa-MaTu-ADR; assay type: cell-based, human; details: 4 days, crystal violet, read-out: Inhibition of HeLa-MaTu-ADR cell proliferation IC50
Experimental: as §1

Caco-2 cells = experiment: Proliferation assay Caco-2; assay type: cell-based, human; details: 4 days, crystal violet, read-out: Inhibition of Caco-2 cell proliferation IC50
Experimental: as §1

Row | SMILES | IC50 (DU145 cells; Homo sapiens, DU-145, 96 h) [nM] | IC50 (CDK2/CycE) [nM] | IC50 (HeLa-MaTu-ADR cells; Homo sapiens, 96 h) [nM] | IC50 (Caco-2 cells; Homo sapiens, Caco-2, 96 h) [nM] | IC50 (DU145 cells; trifluoroacetate) [nM] | IC50 (HeLa-MaTu-ADR cells; trifluoroacetate) [nM] | IC50 (Caco-2 cells; trifluoroacetate) [nM]
1 | C[S+]([O-])Cc1cc2nc(c1)OCCCOc1cc(F)ccc1-c1cc(ncc1F)N2 (racemic) [Example 4, (rac)-15,19-Difluoro-8-[(methylsulfinyl)methyl]-3,4-dihydro-2H,11H-10,6-(azeno)-12,16-(metheno)-1,5,11,13-benzodioxadiazacyclooctadecine] | 11 | 4.6 | 10 | 10 | – | – | –
2 | CC(=O)N=S(C)(=O)Cc1cc2nc(c1)OCCCOc1cc(F)ccc1-c1cc(ncc1F)N2 (racemic) [Example 18, (rac)-N-[{[15,19-difluoro-3,4-dihydro-2H,11H-10,6-(azeno)-12,16-(metheno)-1,5,11,13-benzodioxadiazacyclooctadecin-8-yl]methyl}(methyl)oxido-λ^6-sulfanylidene]acetamide] | 26 | 8.2 | 10 | 14 | – | – | –
3 | C[S+]([O-])Cc1cc2nc(c1)OCCOc1cc(F)ccc1-c1cc(ncc1F)N2 (racemic) [Example 10, (rac)-14,18-difluoro-7-[(methylsulfinyl)methyl]-2,3-dihydro-10H-9,5-(azeno)-11,15-(metheno)-1,4,10,12-benzodioxadiazacycloheptadecine] | 324 | 415 | 476 | 584 | – | – | –
4 | CS(=O)(Cc1cc2nc(c1)OCCCOc1cc(F)ccc1-c1cc(ncc1F)N2)=NS(=O)(=O)CCN.O=C(O)C(F)(F)F (racemic) [Example 24, (rac)-2-{[{[15,19-difluoro-3,4-dihydro-2H,11H-10,6-(azeno)-12,16-(metheno)-1,5,11,13-benzodioxadiazacyclooctadecin-8-yl]methyl}(methyl)oxido-λ^6-sulfanylidene]sulfamoyl}ethanaminium trifluoroacetate] | – | 13.5 | – | – | 387 | 210 | 267
5 | CS(=N)(=O)Cc1cc2nc(c1)OCCOc1cc(F)ccc1-c1cc(ncc1F)N2 (racemic) [Example 11, (rac)-14,18-difluoro-7-[(S-methylsulfonimidoyl)methyl]-2,3-dihydro-10H-9,5-(azeno)-11,15-(metheno)-1,4,10,12-benzodioxadiazacycloheptadecine] | 159 | 180 | 185 | 158 | – | – | –
6 | C[S+]([O-])Cc1cc2nc(c1)OCCCCOc1cc(F)ccc1-c1cc(ncc1F)N2 (racemic) [Example 13, (rac)-16,20-difluoro-9-[(methylsulfinyl)methyl]-2,3,4,5-tetrahydro-12H-11,7-(azeno)-13,17-(metheno)-1,6,12,14-benzodioxadiazacyclononadecine] | 30 | 16.7 | 31 | 22 | – | – | –
7 | CS(=O)(Cc1cc2cc(c1)OCCCOc1cc(F)ccc1-c1nc(ncc1F)N2)=NC(=O)C(F)(F)F (racemic) [Example 16, (rac)-N-[{[15,19-difluoro-3,4-dihydro-2H,11H-12,16-(azeno)-10,6-(metheno)-1,5,11,13-benzodioxadiazacyclooctadecin-8-yl]methyl}(methyl)oxido-λ^6-sulfanylidene]-2,2,2-trifluoroacetamide] | 17 | 58.2 | 12 | 15 | – | – | –
8 | CSCc1cc2nc(c1)OCCCCOc1cc(F)ccc1-c1cc(ncc1F)N2 [Example 12, 16,20-Difluoro-9-[(methylsulfanyl)methyl]-2,3,4,5-tetrahydro-12H-11,7-(azeno)-13,17-(metheno)-1,6,12,14-benzodioxadiazacyclononadecine] | 218 | 114 | 207 | 61 | – | – | –
9 | CS(=N)(=O)Cc1cc2cc(c1)OCCCOc1cc(F)ccc1-c1nc(ncc1F)N2 (racemic) [Example 15, (rac)-15,19-difluoro-8-[(S-methylsulfonimidoyl)methyl]-3,4-dihydro-2H,11H-12,16-(azeno)-10,6-(metheno)-1,5,11,13-benzodioxadiazacyclooctadecine] | 17 | 26 | 14 | 17 | – | – | –
10 | CS(=O)(=O)N=S(C)(=O)Cc1cc2nc(c1)OCCCOc1cc(F)ccc1-c1cc(ncc1F)N2 (racemic) [Example 22, (rac)-N-[{[15,19-difluoro-3,4-dihydro-2H,11H-10,6-(azeno)-12,16-(metheno)-1,5,11,13-benzodioxadiazacyclooctadecin-8-yl]methyl}(methyl)oxido-λ^6-sulfanylidene]methanesulfonamide] | 40 | 19.3 | 20 | 27 | – | – | –
11 | NCCS(=O)(=O)Cc1cc2nc(c1)OCCCOc1cc(F)ccc1-c1cc(ncc1F)N2 [Example 26, 2-({[15,19-difluoro-3,4-dihydro-2H,11H-10,6-(azeno)-12,16-(metheno)-1,5,11,13-benzodioxadiazacyclooctadecin-8-yl]methyl}sulfonyl)ethanamine] | 386 | 10 | 298 | 329 | – | – | –
12 | CS(=N)(=O)Cc1cc2nc(c1)OCCCCOc1cc(F)ccc1-c1cc(ncc1F)N2 (racemic) [Example 14, (rac)-16,20-difluoro-9-[(S-methylsulfonimidoyl)methyl]-2,3,4,5-tetrahydro-12H-11,7-(azeno)-13,17-(metheno)-1,6,12,14-benzodioxadiazacyclononadecine] | 16 | 19.8 | 20 | 13 | – | – | –
